From article PMC6100113, “Involvement of CYP4F2 in the Metabolism of a Novel Monophosphate Ester Prodrug of Gemcitabine and Its Interaction Potential In Vitro” (Molecules : A Journal of Synthetic Chemistry and Natural …, 2018)

T1: CYP4F2 (Homo sapiens, UniProt P78329)
T1 construct: purchased Corning Gentest
T1 sequence (P78329 5-520): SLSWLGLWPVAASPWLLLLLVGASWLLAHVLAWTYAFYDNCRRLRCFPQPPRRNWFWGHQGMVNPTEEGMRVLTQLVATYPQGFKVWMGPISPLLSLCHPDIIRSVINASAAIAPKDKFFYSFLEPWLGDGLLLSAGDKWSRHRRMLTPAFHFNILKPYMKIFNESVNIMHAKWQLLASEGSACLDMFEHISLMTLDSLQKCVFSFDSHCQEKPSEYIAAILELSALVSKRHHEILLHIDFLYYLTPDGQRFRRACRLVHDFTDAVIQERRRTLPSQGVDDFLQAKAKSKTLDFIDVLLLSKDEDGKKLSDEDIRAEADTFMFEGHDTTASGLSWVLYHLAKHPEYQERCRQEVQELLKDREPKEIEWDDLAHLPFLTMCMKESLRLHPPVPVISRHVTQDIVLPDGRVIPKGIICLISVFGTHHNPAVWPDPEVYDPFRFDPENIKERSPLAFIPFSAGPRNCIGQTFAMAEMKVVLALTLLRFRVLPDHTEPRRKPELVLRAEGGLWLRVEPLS

B1: CYP4F2 (Homo sapiens) (protein)
chain: T1 sequence (P78329 5-520)
notes: purchased Corning Gentest

Columns and labels:
[1] = Metabolite identification by UPLC/Triple TOF MS in rat intestinal microsomes; format: in vitro ADME; parameters: key: √: metabolites were detected by high-resolution mass spectrometry; details: Compound-3 10 μM, NADPH, 60 min, HRMS
[2] = Metabolite identification by UPLC/Triple TOF MS in human intestinal microsomes; format: in vitro ADME; parameters: key: √: metabolites were detected by high-resolution mass spectrometry; details: Compound-3 10 μM, NADPH, 60 min, HRMS
Experimental: (§1) For metabolite identification, a higher concentration of Compound-3 (10 μM) was incubated with liver microsomes (1 mg/mL) in the presence of NADPH (1 mM) and primary human hepatocytes at a density of 1 × 10^6 cell/mL. Samples were collected at 0 min and 60 min with the addition of ice-cold acetonitrile. After vortexing and centrifugation, the supernatant was transferred into a new tube and evaporated to dryness. The samples were then reconstituted in 100 μL of water and methanol (v/v, 9:1). An aliquot of 10 μL of reconstituted solution was injected into UPLC/Triple TOF 5600^+ MS for metabolite identification.
(§2) Identification of Compound-3 metabolites was carried out using Acquity UPLC/Triple TOF 5600^+ system. Chromatographic separation for Compound-3 and its metabolites were achieved by an Acquity UPLC HSS T3 column (100 × 2.1 mm i.d., […]; Waters Corp.) maintained at 40 °C. The mobile phase was a mixture of 0.02% formic acid in 5 mM ammonium acetate (A) and methanol (B). The gradient elution was started from 2% B and maintained for 4 min, then increased linearly to 75% B over the next 4 min and maintained for 8 min. […] The flow rate was 0.4 mL/min and the eluent was monitored by UV detection at 280 nm.
(§3) For mass detection, a Triple TOF 5600^+ mass spectrometer (AB Sciex, Framingham, MA, USA) was operated in positive ion electrospray (ES-positive) mode with the source temperature at 500 °C and scan range from m/z 100 to 1000 Da. Other parameters were set as follows: ion spray voltage, 5500 V; decluttering potential, 80 V; curtain gas, 40 psi; ion source gas 1, 55 psi; and ion source gas 2, 50 psi. Collision energies of 25 and 65 eV were used for TOF MS and product ion scans, respectively, and a collision energy spread of 20 was used in the MS/MS analysis. Information-dependent acquisition (IDA), together with real-time multiple mass defect filter, was used to trigger acquisition of MS/MS spectra.

[3] = Metabolite identification by UPLC/Triple TOF MS in human hepatocytes; format: in vitro ADME; parameters: key: √: metabolites were detected by high-resolution mass spectrometry; details: Compound-3 10 μM, 1 × 10^6 cell/mL, 60 min, HRMS
Experimental: as §1, §2, §3

[4] = molecular target: T1, CYP4F2; assay: Reaction phenotyping with recombinant CYP4F2; format: in vitro ADME; details: Compound-3 1 μM with recombinant CYP4F2 50 nM, NADPH, 37 °C (Figure S2)
Experimental: Compound-3 was incubated separately with human cDNA-expressed cytochrome P450s (CYP1A2, CYP2B6, CYP2C8, CYP2C9, CYP2C19, CYP2D6, CYP3A4, CYP4A11, CYP4F2 and CYP4F3). The incubation mixtures contained individual CYP isoenzymes (50 nM), potassium phosphate buffer (100 mM, pH 7.4), NADPH (1 mM), and Compound-3 (1 µM). The final volume of the incubation mixture was 50 µL. Before the start of the incubation, reaction mixtures were warmed up at 37 °C for 10 min. The reaction was initiated with the addition of NADPH and the incubations were performed at 37 °C in a water bath. […] Control samples without NADPH but substrates were included. The samples were then centrifuged and aliquots of 10 μL of the supernatants were transferred onto LC-MS/MS for the analysis of Compound-3 and M4 (carboxylic acid) levels.
The following are available online. Figure S1. Gemcitabine Formation from Compound-3 Hydrolysis as a function of alkaline phosphatase protein concentrations. Compound-3 (1 μM) was incubated with alkaline phosphatase concentrations ranging from 0.01–0.2 mg/mL at 37 °C (n = 3). Figure S2. Metabolites of Compound-3 in human recombinant CYP4F2. Compound-3 (1 μM) was incubated with human recombinant CYP4F2 (50 nM) in the presence of NADPH at 37 °C (n = 3).

[5] = Metabolite identification by UPLC/Triple TOF MS in human liver microsomes; format: in vitro ADME; parameters: key: √: metabolites were detected by high-resolution mass spectrometry; details: Compound-3 10 μM, 1 mg/mL microsomes, NADPH, 60 min, HRMS
Experimental: as §1, §2, §3

[6] = Metabolite identification by UPLC/Triple TOF MS in rat liver microsomes; format: in vitro ADME; parameters: key: √: metabolites were detected by high-resolution mass spectrometry; details: Compound-3 10 μM, 1 mg/mL microsomes, NADPH, 60 min, HRMS
Experimental: as §1, §2, §3

[7] = tested on: alkaline phosphatase; assay: Hydrolysis of Compound-3 by alkaline phosphatase (gemcitabine formation); format: in vitro ADME; parameters: key to detected in matrix ALP: √: metabolites were detected by high-resolution mass spectrometry; details: incubation of Compound-3 with alkaline phosphatase, HRMS
Experimental: Compound-3 was incubated with alkaline phosphatase, and the linearity of gemcitabine formation as a function of time and protein concentration was first examined. The reaction mixtures consisted of alkaline phosphatase, 100 mM phosphate buffer (pH 7.4) and Compound-3 (10 μM). The final volume of the incubation mixture was 200 μL. The mixture was warmed up at 37 °C for 2 min prior to the initiation of the reaction with the addition of the enzyme. At specified time points, 25 μL of the incubation mixtures was added to 100 μL cold acetonitrile containing the internal standard to terminate the reaction. Levels of gemcitabine were determined by LC-MS/MS. […] Compound-3 was tested at concentrations ranging from 0 to 200 μM. Kinetic parameters of Compound-3 in alkaline phosphatase were calculated using GraphPad Prism (Version 6.0, GraphPad Software Inc., San Diego, CA) and nonlinear regression analysis. Equation used was as the following (the Michaelis-Menten equation):V = (Vmax × [S])/(Km + [S])(1) where V is the rate of metabolite formation, Vmax is the maximum velocity, Km is the Michaelis constant (substrate concentration at 0.5 Vmax), and [S] is the substrate concentration.

[8] = tested on: Compound-3 metabolism in human liver microsomes; assay: Inhibition of Compound-3 metabolism in HLM by selective chemical inhibitors of CYP isozymes; format: in vitro ADME; details: HLM 0.2 mg/mL, 1 μM Compound-3; HET-0016 1 µM, ketoconazole 1 µM, quercetin 10 µM, other inhibitors at the concentrations of b45
Experimental: Incubation contained 0.2 mg/mL human liver microsomes, 100 mM phosphate buffer (pH 7.4), 1 mM NADPH, 1 μM Compound-3, and inhibitors at specified concentrations. Compound-3 remaining was calculated based on concentrations after incubation in the presence or absence of respective inhibitors.

[9] = molecular target: T1, CYP4F2; assay: CYP4F2-mediated drug interaction (inhibition of CYP4F2); format: in vitro ADME; details: substrate Compound-3 1 μM, CYP4F2 10 nM, 10 min, M4 formation; read-out: IC50, inhibition of CYP4F2 mediated metabolism of Compound-3
Experimental: CYP4F2-mediated drug interactions were examined in two separate setting: pafuramidine as the substrate and Compound-3 as the inhibitor; and Compound-3 as the substrate and pafuramidine as the inhibitor. The reaction system contained 10 nM CYP4F2, 100 mM phosphate buffer (pH 7.4), 1 mM NADPH, and substrate (pafuramidine 1.5 μM or Compound-3 1 μM). Inhibitor (Compound-3 or pafuramidine) concentrations ranged from 0 to 10,000 nM. The incubation time was 5 min for pafuramidine and 10 min for Compound-3. Incubation temperature was 37 °C. LC-MS/MS analysis was performed as described above for the levels of DB775 or M4 (carboxylic acid metabolite of Compound-3).

[10] = substrate: CCCCCCCCCCCCCCCCCCOCCOP(=O)(O)OCC1OC(n2ccc(N)nc2=O)C(F)(F)C1O; assay: Formation kinetics of M4 (carboxylic acid) from Compound-3 by CYP4F2; format: in vitro ADME, human; details: other: CYP4F2 10 nM, 10 min, substrate inhibition model, estimated; pH 7.4; 37.0 °C
Experimental: To investigate the formation kinetics of carboxylic acid metabolite (M4) from Compound-3, varying concentrations of Compound-3 (0–10 µM) were incubated with 10 nM CYP4F2 and 1 mM NADPH in 100 mM phosphate buffer (pH 7.4). The reactions were carried at 37 °C for 10 min and terminated with the addition of ice-cold acetonitrile containing the internal standard. Samples were then centrifuged, and aliquots of 10 μL of the supernatants were analyzed by LC-MS/MS for M4 levels.
Kinetic parameters of Compound-3 in recombinant human CYP4F2 were calculated using Enzyme Kinetics Modules of SigmaPlot (Version 14.0, Systat Software, San Jose, CA, USA). An uncompetitive substrate inhibition equation was also used:V = (Vmax × [S])/{Km + [S] × (1 + [S]/Ki)}(2) where Ki is the disassociation constant describing the inhibitor-enzyme interaction.

Molecule	detected in matrix RIM [1]	detected in matrix HIM [2]	detected in matrix Human Hepatocytes [3]	incubation time at which metabolite formation peaked [4]	detected in matrix HLM [5]	further results
Nc1ccn(C2OC(COP(=O)(O)OCCOCCCCCCCCCCCCCCCCCC=O)C(O)C2(F)F)c(=O)n1 (stereo not shown) [Compound M2]	√	√	√	5 min	√	
Nc1ccn(C2OC(COP(=O)(O)OCCOCCCCCCCCCCCCCCCCCCO)C(O)C2(F)F)c(=O)n1 (stereo not shown) [Compound M3]	√	√	√	5 min	√	detected in matrix RLM [6]: √
Nc1ccn(C2OC(COP(=O)(O)OCCOCCCCCCCCCCCCCCCCCC(=O)O)C(O)C2(F)F)c(=O)n1 (stereo not shown) [Compound M4]	√	√	√	60 min	√	detected in matrix RLM [6]: √
Nc1ccn([C@@H]2O[C@H](CO)[C@@H](O)C2(F)F)c(=O)n1 [Gemcitabine, 2′,2′-difluorodeoxycytidine]						detected in matrix ALP [7]: √
CC(=O)N1CCN(c2ccc(OCC3COC(Cn4ccnc4)(c4ccc(Cl)cc4Cl)O3)cc2)CC1 (stereo not shown) [ketoconazole]						inhibition of Compound-3 metabolism in HLM [8]: moderate inhibition
CONC(=N)c1ccc(-c2ccc(-c3ccc(C(=N)NOC)cc3)o2)cc1 [pafuramidine, reference compound]						IC50 [9]: 240 nM
O=c1c(O)c(-c2ccc(O)c(O)c2)oc2cc(O)cc(O)c12 [quercetin]						inhibition of Compound-3 metabolism in HLM [8]: moderate inhibition
B1						Km [10]: 0.69 µM
